Source: patent publication US20090239841A1, “Diaryl Ureas as CB1 Antagonists” (priority 2004, published 2009)

Biological target: T1, hCB1 (Homo sapiens, UniProt P21554)
T1 construct: made in house; host or cells: Sf9 insect cells (baculovirus), P2 membranes
Assay: Agonist-induced GTP binding (GTPγ35S) assay at CB1, Example 8
Type: biochemical
Conditions: IC50 at CB1, determined as described in Example 8; read-out: IC50
Procedure, shortened: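 Membranes from Sf9 cells co-expressing hCB1 and heterotrimeric G-protein (10 μg protein) in Tris pH 7.4 buffer with 5 μM GDP. Test compounds (10^−10–10^−5 M) competed against 1 nM CP55,940 with […] GTPγ35S, 60 min at room temperature. Filter-bound radioactivity by scintillation, expressed as percent above basal.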

T1 sequence (P21554 whole entry): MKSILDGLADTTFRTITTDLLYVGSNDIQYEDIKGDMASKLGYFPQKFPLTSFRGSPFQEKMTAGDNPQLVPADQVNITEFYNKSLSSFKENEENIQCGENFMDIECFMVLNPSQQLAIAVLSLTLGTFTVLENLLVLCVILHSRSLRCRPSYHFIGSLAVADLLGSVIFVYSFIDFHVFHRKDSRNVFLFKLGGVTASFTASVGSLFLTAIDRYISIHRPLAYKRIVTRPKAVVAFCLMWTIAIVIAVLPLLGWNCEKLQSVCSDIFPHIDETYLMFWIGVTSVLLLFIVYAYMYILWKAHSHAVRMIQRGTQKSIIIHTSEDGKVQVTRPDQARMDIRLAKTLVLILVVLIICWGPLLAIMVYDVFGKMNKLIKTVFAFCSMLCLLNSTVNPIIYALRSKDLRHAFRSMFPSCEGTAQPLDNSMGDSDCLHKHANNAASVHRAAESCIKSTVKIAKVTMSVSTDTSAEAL

SMILES | IC50
N#CCOc1ccc(NC(=O)Nc2ccc(C#N)cc2)cc1 [Compound 506, 1-[4-(cyanomethoxy)phenyl]-3-(4-cyanophenyl)urea] | < 2 µM
COc1ccc(NC(=O)Nc2ccc(OC(C)C)cc2)cc1 [Compound 552, 1-(4-isopropoxyphenyl)-3-(4-methoxyphenyl)urea] | < 2 µM
CCCc1ccc(NC(=O)Nc2ccc(OCC)cc2)cc1 [Compound 526, 1-(4-ethoxyphenyl)-3-(4-propylphenyl)urea] | < 2 µM
CC(=O)c1ccc(NC(=O)Nc2ccc(C)cc2)cc1 [Compound 338, 1-(4-acetylphenyl)-3-(4-methylphenyl)urea] | < 2 µM
COc1ccc(NC(=O)Nc2ccc(OCC#N)cc2)cc1 [Compound 589, 1-[4-(cyanomethoxy)phenyl]-3-(4-methoxyphenyl)urea] | < 2 µM
COCc1ccc(NC(=O)Nc2ccc(C(=O)OC)cc2)cc1 [Compound 668, methyl 4-[({[4-(methoxymethyl)phenyl]amino}carbonyl)amino]benzoate] | < 2 µM
COC(=O)c1ccc(NC(=O)Nc2ccc(Cl)cc2)cc1 [Compound 496, methyl 4-({[(4-chlorophenyl)amino]carbonyl}amino)benzoate] | < 2 µM
CCOC(=O)c1ccc(NC(=O)Nc2ccc(CC#N)cc2)cc1 [Compound 715, ethyl 4-[({[4-(cyanomethyl)phenyl]amino}carbonyl)amino]benzoate] | < 2 µM
CCc1ccc(NC(=O)Nc2ccc(CC#N)cc2)cc1 [Compound 483, 1-[4-(cyanomethyl)phenyl]-3-(4-ethylphenyl)urea] | < 2 µM
CCOC(=O)c1ccc(NC(=O)Nc2ccc(OC)cc2)cc1 [Compound 594, ethyl 4-({[(4-methoxyphenyl)amino]carbonyl}amino)benzoate] | < 2 µM
CCOC(=O)c1ccc(NC(=O)Nc2ccc(CO)cc2)cc1 [Compound 749, ethyl 4-[({[4-(hydroxymethyl)phenyl]amino}carbonyl)amino] benzoate] | < 2 µM

Results, then the compound that gave them:

IC50 | SMILES
< 2 µM | COCc1ccc(NC(=O)Nc2cccc(OC)c2)cc1 [Compound 544, 1-[4-(methoxymethyl)phenyl]-3-(3-methoxyphenyl)urea]
< 2 µM | Cc1ccc(NC(=O)Nc2ccc(O)cc2)cc1F [Compound 760, 1-(3-fluoro-4-methylphenyl)-3-(4-hydroxyphenyl)urea]
< 2 µM | CCCc1ccc(NC(=O)Nc2ccc(C)c(F)c2)cc1 [Compound 655, 1-(3-fluoro-4-methylphenyl)-3-(4-propylphenyl)urea]
< 2 µM | CCc1ccc(NC(=O)Nc2ccc(Cl)c(C)c2)cc1 [Compound 446, 1-(4-chloro-3-methylphenyl)-3-(4-ethylphenyl)urea]
< 2 µM | CCc1cccc(NC(=O)Nc2ccc(C)cc2)c1 [Compound 324, 1-(3-ethylphenyl)-3-(4-methylphenyl)urea]
< 2 µM | COCc1ccc(NC(=O)Nc2cc(F)cc(F)c2)cc1 [Compound 705, 1-(3,5-difluorophenyl)-3-[4-(methoxymethyl)phenyl]urea]
< 2 µM | CC(C)Oc1cccc(NC(=O)Nc2cccc(C#N)c2)c1 [Compound 418, 1-(3-cyanophenyl)-3-(3-isopropoxyphenyl)urea]
< 2 µM | CC(=O)c1cccc(NC(=O)Nc2ccc(C(C)C)cc2)c1 [Compound 347, 1-(3-acetylphenyl)-3-(4-isopropylphenyl)urea]
< 2 µM | Cc1ccc(NC(=O)Nc2cccc(F)c2)cc1F [Compound 429, 1-(3-fluoro-4-methylphenyl)-3-(3-fluorophenyl)urea]
< 2 µM | CCC(=O)c1ccc(NC(=O)Nc2cccc(C#N)c2)cc1 [Compound 509, 1-(3-cyanophenyl)-3-(4-propionylphenyl)urea]
< 2 µM | COC(=O)c1ccc(NC(=O)Nc2cccc(OC(F)F)c2)cc1 [Compound 677, methyl 4-[({[3-(difluoromethoxy)phenyl]amino}carbonyl)amino]benzoate]
< 2 µM | Cc1cccc(NC(=O)Nc2ccc(N3CCOCC3)c(Cl)c2)c1 [Compound 318, 1-(3-chloro-4-morpholin-4-ylphenyl)-3-(3-methylphenyl)urea]
< 2 µM | COc1cccc(NC(=O)Nc2ccc(OC(C)C)cc2)c1 [Compound 551, 1-(4-isopropoxyphenyl)-3-(3-methoxyphenyl)urea]

Same assay, conditions: Table I; IC50 at CB1, GTP binding with 1 nM CP55,940; read-out: IC50

IC50 | SMILES
< 2 µM | CCCOc1ccc(NC(=O)Nc2ccc(CC)cc2)cc1 [Compound 24, N-(4-ethylphenyl)-N′-(4-propoxyphenyl)urea]
< 2 µM | CC(C)c1ccc(NC(=O)Nc2ccccc2)cc1 [Compound 47, N-(4-isopropylphenyl)-N′-phenylurea]

Same assay, conditions: Table II; IC50 at CB1, GTP binding with 1 nM CP55,940; read-out: IC50

SMILES | IC50
O=C(Nc1ccc(OC(F)F)cc1)Nc1ccc(OC(F)(F)F)cc1 [Compound 96, N-[4-(difluoromethoxy)phenyl]-N′-[4-(trifluoromethoxy)phenyl]urea] | < 2 µM
CCc1ccc(NC(=O)Nc2ccc(COC)cc2)cc1 [Compound 240, N-(4-ethylphenyl)-N′-[4-(methoxymethyl)phenyl]urea] | < 2 µM
O=C(Nc1ccc(OC(F)F)cc1)Nc1cccc(OC(F)F)c1 [Compound 103, N-[3-(difluoromethoxy)phenyl]-N′-[4-(difluoromethoxy)phenyl]urea] | < 2 µM
O=C(Nc1ccc(OC(F)F)cc1)Nc1ccc(C(F)(F)F)cc1 [Compound 77, N-[4-(difluoromethoxy)phenyl]-N′-[4-(trifluoromethyl)phenyl]urea] | < 2 µM
CCc1ccc(NC(=O)Nc2ccc(C(C)C)cc2)cc1 [Compound 181, N-(4-ethylphenyl)-N′-(4-isopropylphenyl)urea] | < 2 µM
CC(=O)c1ccc(NC(=O)Nc2ccc(Cl)cc2)cc1 [Compound 192, N-(4-acetylphenyl)-N′-(4-chlorophenyl)urea] | < 2 µM
CCc1ccc(NC(=O)Nc2ccc(OC(C)C)cc2)cc1 [Compound 250, N-(4-ethylphenyl)-N′-(4-isopropoxyphenyl)urea] | < 2 µM

Now from value to compound:

IC50 | SMILES
< 2 µM | CCCOc1ccc(NC(=O)Nc2cccc(F)c2)cc1 [Compound 209, N-(3-fluorophenyl)-N′-(4-propoxyphenyl)urea]
< 2 µM | CCOc1cccc(NC(=O)Nc2cccc(F)c2)c1 [Compound 203, N-(3-ethoxyphenyl)-N′-(3-fluorophenyl)urea]
< 2 µM | Cc1cccc(NC(=O)Nc2ccc(N3CCCCC3)cc2)c1 [Compound 168, N-(3-methylphenyl)-N′-(4-piperidin-1-ylphenyl)urea]
< 2 µM | CCOc1ccc(NC(=O)Nc2cccc(CC)c2)cc1 [Compound 234, N-(4-ethoxyphenyl)-N′-(3-ethylphenyl)urea]
< 2 µM | CCOC(=O)c1cccc(NC(=O)Nc2ccc(OC(F)F)cc2)c1 [Compound 148, ethyl 3-[({[4-(difluoromethoxy)phenyl]amino}carbonyl)amino]benzoate]
< 2 µM | COCc1ccc(NC(=O)Nc2cccc(F)c2)cc1 [Compound 208, N-(3-fluorophenyl)-N′-[4-(methoxymethyl)phenyl]urea]
